IC50 data for 29 compounds are collected here from patent publication US20150031668A1, “CHROMAN DERIVATIVES AS TRPM8 INHIBITORS” (AMGEN INC., priority 2013, published 2015).

Where a name gives a salt, the structure may show the parent alone.

The experiment deals with T1, human TRPM8 (Homo sapiens, UniProt Q7Z2W7).
T1 construct: expressed in transfected cells; host or cells: Chinese hamster ovary (CHO) cells, T-REx tetracycline-inducible expression system (Invitrogen); co-transfected with pcDNA3.1 aequorin
T1 sequence (Q7Z2W7 whole entry): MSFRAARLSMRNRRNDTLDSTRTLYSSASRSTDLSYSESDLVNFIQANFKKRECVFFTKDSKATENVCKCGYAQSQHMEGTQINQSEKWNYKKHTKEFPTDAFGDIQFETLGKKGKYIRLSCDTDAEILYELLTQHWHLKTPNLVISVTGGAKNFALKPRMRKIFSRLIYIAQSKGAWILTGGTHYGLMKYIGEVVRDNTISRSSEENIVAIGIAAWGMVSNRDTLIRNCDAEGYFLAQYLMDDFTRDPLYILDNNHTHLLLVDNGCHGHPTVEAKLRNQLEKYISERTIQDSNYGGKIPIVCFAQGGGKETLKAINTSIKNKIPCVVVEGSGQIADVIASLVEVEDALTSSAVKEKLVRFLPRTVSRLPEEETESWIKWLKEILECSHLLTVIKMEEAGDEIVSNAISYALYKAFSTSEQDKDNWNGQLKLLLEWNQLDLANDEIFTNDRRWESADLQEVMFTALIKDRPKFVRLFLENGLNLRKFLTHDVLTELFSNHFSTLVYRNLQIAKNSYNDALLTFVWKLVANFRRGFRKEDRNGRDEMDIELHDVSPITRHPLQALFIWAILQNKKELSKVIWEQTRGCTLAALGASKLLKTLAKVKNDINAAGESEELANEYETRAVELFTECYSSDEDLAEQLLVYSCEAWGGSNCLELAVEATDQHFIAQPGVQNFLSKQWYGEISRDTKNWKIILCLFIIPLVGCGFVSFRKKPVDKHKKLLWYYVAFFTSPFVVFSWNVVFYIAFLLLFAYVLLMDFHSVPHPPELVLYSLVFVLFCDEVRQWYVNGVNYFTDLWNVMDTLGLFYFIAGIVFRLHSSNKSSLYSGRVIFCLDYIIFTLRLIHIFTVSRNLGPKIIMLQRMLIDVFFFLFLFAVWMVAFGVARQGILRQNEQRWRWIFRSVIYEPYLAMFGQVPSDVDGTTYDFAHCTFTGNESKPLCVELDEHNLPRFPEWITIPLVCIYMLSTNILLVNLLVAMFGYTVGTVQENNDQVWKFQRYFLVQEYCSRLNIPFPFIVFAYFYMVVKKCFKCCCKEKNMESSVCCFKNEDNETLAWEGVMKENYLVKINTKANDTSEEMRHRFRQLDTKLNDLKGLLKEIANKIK
Put plainly: Luminescence readout assay for measuring intracellular calcium (aequorin, CHO cells expressing human TRPM8; icilin, L-menthol or cold activation). The experiment is classed as cell-based. The following applies: CHO cells expressing human TRPM8, icilin activation (1 μM), aequorin luminescence; read-out: hTRPM8 IC50. The method in brief: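 Activation was by 1 μM icilin, 100 μM L-menthol (test compound 2.5 min ahead) or cold buffer below 10° C (compound 1 min ahead). Calcium rise measured as aequorin luminescence in CHO cells with tetracycline-inducible human TRPM8.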

On to `Cn1cc(C(=O)N[C@]2(c3ccc(OC(F)(F)F)cc3)CCOc3cccnc32)c2ccccc21` [Example 257, (S)-1-methyl-N-(4-(4-(trifluoromethoxy)phenyl)-3,4-dihydro-2H-pyrano[3,2-b]pyridin-4-yl)-1H-indole-3-carboxamide formate], for which the IC50 worked out at 0.059 µM. Consider `Cn1ccc2cc(C(=O)N[C@]3(c4ccc(OC(F)(F)F)cc4)CCOc4cccnc43)ccc21` [Example 258, (S)-1-methyl-N-(4-(4-(trifluoromethoxy)phenyl)-3,4-dihydro-2H-pyrano[3,2-b]pyridin-4-yl)-1H-indole-5-carboxamide formate], for which the IC50 came to 0.034 µM. For `O=C(N[C@]1(c2ccc(OC(F)(F)F)cc2)CCOc2cccnc21)C1=Cc2ccccc2OC1` [Example 259, (S)-N-(4-(4-(trifluoromethoxy)phenyl)-3,4-dihydro-2H-pyrano[3,2-b]pyridin-4-yl)-2H-chromene-3-carboxamide formate] the value was 0.088 µM; for `Cn1c(C(=O)N[C@]2(c3ccc(OC(F)(F)F)cc3)CCOc3cccnc32)nc2ccccc21` [Example 260, (S)-1-methyl-N-(4-(4-(trifluoromethoxy)phenyl)-3,4-dihydro-2H-pyrano[3,2-b]pyridin-4-yl)-1H-benzo[d]imidazole-2-carboxamide formate], 0.032 µM; for `Cn1ncc2c(C(=O)N[C@]3(c4ccc(OC(F)(F)F)cc4)CCOc4cccnc43)cccc21` [Example 261, (S)-1-methyl-N-(4-(4-(trifluoromethoxy)phenyl)-3,4-dihydro-2H-pyrano[3,2-b]pyridin-4-yl)-1H-indazole-4-carboxamide formate], 0.032 µM. As to `Cn1ncc2cc(C(=O)N[C@]3(c4ccc(OC(F)(F)F)cc4)CCOc4cccnc43)ccc21` [Example 262, (S)-1-methyl-N-(4-(4-(trifluoromethoxy)phenyl)-3,4-dihydro-2H-pyrano[3,2-b]pyridin-4-yl)-1H-indazole-5-carboxamide formate], the IC50 was found to be 0.007 µM.

As for `Cn1ncc2ccc(C(=O)N[C@]3(c4ccc(OC(F)(F)F)cc4)CCOc4cccnc43)cc21` [Example 263, (S)-1-methyl-N-(4-(4-(trifluoromethoxy)phenyl)-3,4-dihydro-2H-pyrano[3,2-b]pyridin-4-yl)-1H-indazole-6-carboxamide formate], the IC50 was 0.095 µM. With `Cn1cc2c(C(=O)N[C@]3(c4ccc(OC(F)(F)F)cc4)CCOc4cccnc43)cccc2n1` [Example 264, (S)-2-methyl-N-(4-(4-(trifluoromethoxy)phenyl)-3,4-dihydro-2H-pyrano[3,2-b]pyridin-4-yl)-2H-indazole-4-carboxamide formate] the figure was 0.074 µM; with `Cn1cc2ccc(C(=O)N[C@]3(c4ccc(OC(F)(F)F)cc4)CCOc4cccnc43)cc2n1` [Example 265, (S)-2-methyl-N-(4-(4-(trifluoromethoxy)phenyl)-3,4-dihydro-2H-pyrano[3,2-b]pyridin-4-yl)-2H-indazole-6-carboxamide formate], 0.014 µM. For `Cn1cc2cccc(C(=O)N[C@]3(c4ccc(OC(F)(F)F)cc4)CCOc4cccnc43)c2n1` [Example 266, (S)-2-methyl-N-(4-(4-(trifluoromethoxy)phenyl)-3,4-dihydro-2H-pyrano[3,2-b]pyridin-4-yl)-2H-indazole-7-carboxamide formate] the value was 0.036 µM; for `O=C(N[C@]1(c2ccc(OC(F)(F)F)cc2)CCOc2cccnc21)c1cc2ccccc2s1` [Example 267, (S)-N-(4-(4-(trifluoromethoxy)phenyl)-3,4-dihydro-2H-pyrano[3,2-b]pyridin-4-yl) benzo[b]thiophene-2-carboxamide formate], 0.037 µM; for `O=C(N[C@]1(c2ccc(OC(F)(F)F)cc2)CCOc2cccnc21)c1csc2ccccc12` [Example 268, (S)-N-(4-(4-(trifluoromethoxy)phenyl)-3,4-dihydro-2H-pyrano[3,2-b]pyridin-4-yl) benzo[b]thiophene-3-carboxamide formate], 0.071 µM.

Take `O=C(N[C@]1(c2ccc(OC(F)(F)F)cc2)CCOc2cccnc21)c1ccc2nsnc2c1` [Example 269, (S)-N-(4-(4-(trifluoromethoxy)phenyl)-3,4-dihydro-2H-pyrano[3,2-b]pyridin-4-yl) benzo[c][1,2,5] thiadiazole-5-carboxamide formate]: the IC50 came out at 0.024 µM. With `Cn1nc2c(c1C(=O)N[C@]1(c3ccc(OC(F)(F)F)cc3)CCOc3cccnc31)CCCC2` [Example 270, (S)-2-methyl-N-(4-(4-(trifluoromethoxy)phenyl)-3,4-dihydro-2H-pyrano[3,2-b]pyridin-4-yl)-4,5,6,7-tetrahydro-2H-indazole-3-carboxamide formate] the figure was 0.044 µM. With `O=C(N[C@]1(c2ccc(OC(F)(F)F)cc2)CCOc2cccnc21)c1ccc2cc[nH]c(=O)c2c1` [Example 271, (S)-1-oxo-N-(4-(4-(trifluoromethoxy)phenyl)-3,4-dihydro-2H-pyrano[3,2-b]pyridin-4-yl)-1,2-dihydroisoquinoline-7-carboxamide formate], the IC50 was found to be 0.016 µM. For `O=C(N[C@]1(c2ccc(OC(F)(F)F)cc2)CCOc2cccnc21)c1c[nH]c(=O)c2ccccc12` [Example 272, (S)-1-oxo-N-(4-(4-(trifluoromethoxy)phenyl)-3,4-dihydro-2H-pyrano[3,2-b]pyridin-4-yl)-1,2-dihydroisoquinoline-4-carboxamide formate], the IC50 was 0.183 µM. With `O=C(N[C@]1(c2ccc(OC(F)(F)F)cc2)CCOc2cccnc21)c1ccc(-c2cnco2)cc1` [Example 273, (S)-4-(oxazol-5-yl)-N-(4-(4-(trifluoromethoxy)phenyl)-3,4-dihydro-2H-pyrano[3,2-b]pyridin-4-yl)benzamide formate] the figure was 0.019 µM; with `COc1cc2cc(C(=O)N[C@]3(c4ccc(OC(F)(F)F)cc4)CCOc4cccnc43)[nH]c2cn1` [Example 274, (S)-5-methoxy-N-(4-(4-(trifluoromethoxy)phenyl)-3,4-dihydro-2H-pyrano[3,2-b]pyridin-4-yl)-1H-pyrrolo[2,3-c] pyridine-2-carboxamide formate], 0.189 µM; with `Cc1nc(-c2cccc(C(=O)N[C@]3(c4ccc(OC(F)(F)F)cc4)CCOc4cccnc43)c2)no1` [Example 275, (S)-3-(5-methyl-1,2,4-oxadiazol-3-yl)-N-(4-(4-(trifluoromethoxy)phenyl)-3,4-dihydro-2H-pyrano[3,2-b]pyridin-4-yl)benzamide formate], 0.034 µM.

Regarding `Cc1nc(-c2ccc(C(=O)N[C@]3(c4ccc(OC(F)(F)F)cc4)CCOc4cccnc43)cc2)no1` [Example 276, (S)-4-(5-methyl-1,2,4-oxadiazol-3-yl)-N-(4-(4-(trifluoromethoxy)phenyl)-3,4-dihydro-2H-pyrano[3,2-b]pyridin-4-yl)benzamide formate], the IC50 came to 0.016 µM. For `O=C(N[C@]1(c2ccc(OC(F)(F)F)cc2)CCOc2cccnc21)c1cccc(N2CCCC2=O)c1` [Example 277, (S)-3-(2-oxopyrrolidin-1-yl)-N-(4-(4-(trifluoromethoxy)phenyl)-3,4-dihydro-2H-pyrano[3,2-b]pyridin-4-yl)benzamide formate] the value was 0.085 µM; for `COc1ccc2c(c1)C=C(C(=O)N[C@]1(c3ccc(OC(F)(F)F)cc3)CCOc3cccnc31)CO2` [Example 278, (S)-6-methoxy-N-(4-(4-(trifluoromethoxy)phenyl)-3,4-dihydro-2H-pyrano[3,2-b]pyridin-4-yl)-2H-chromene-3-carboxamide fonnate], 0.068 µM.

Take `CCOC(=O)c1nc(C(=O)N[C@]2(c3ccc(OC(F)(F)F)c(F)c3)CCOc3cccnc32)cs1` [Example 279, (S)-ethyl 4-((4-(3-fluoro-4-(trifluoromethoxy)phenyl)-3,4-dihydro-2H-pyrano[3,2-b]pyridin-4-yl)carbamoyl) thiazole-2-carboxylate]: the IC50 is 0.053 µM. For `COC(=O)c1cccc(C(=O)N[C@]2(c3ccc(OC(F)(F)F)c(F)c3)CCOc3cccnc32)c1` [Example 280, (S)-methyl 3-((4-(3-fluoro-4-(trifluoromethoxy)phenyl)-3,4-dihydro-2H-pyrano[3,2-b]pyridin-4-yl)carbamoyl) benzoate], the IC50 is 0.026 µM. For `O=C(N[C@]1(c2ccc(OC(F)(F)F)c(F)c2)CCOc2cccnc21)c1ccc(-c2nn[nH]n2)cn1` [Example 281, (S)—N-(4-(3-fluoro-4-(trifluoromethoxy)phenyl)-3,4-dihydro-2H-pyrano[3,2-b]pyridin-4-yl)-5-(2H-tetrazol-5-yl)picolinamide] the value was 0.051 µM; for `O=C(N[C@]1(c2ccc(OC(F)(F)F)c(F)c2)CCOc2cccnc21)c1ccc(-c2ncon2)cn1` [Example 282, (S)—N-(4-(3-fluoro-4-(trifluoromethoxy)phenyl)-3,4-dihydro-2H-pyrano[3,2-b]pyridin-4-yl)-5-(1,2,4-oxadiazol-3-yl)picolinamide], 0.007 µM.

`Nc1ccc(C(=O)N[C@]2(c3ccc(OC(F)(F)F)c(F)c3)CCOc3cccnc32)nc1` [Example 284, (S)-5-amino-N-(4-(3-fluoro-4-(trifluoromethoxy)phenyl)-3,4-dihydro-2H-pyrano[3,2-b]pyridin-4-yl)picolinamide]: the 50% inhibitory concentration (IC50) stood at 0.006 µM.

As for `COC(=O)c1cccc(S(=O)(=O)N[C@]2(c3ccc(OC(F)(F)F)c(F)c3)CCOc3cccnc32)c1` [Example 285, (S)-methyl 3-(N-(4-(3-fluoro-4-(trifluoromethoxy)phenyl)-3,4-dihydro-2H-pyrano[3,2-b]pyridin-4-yl)sulfamoyl)benzoate], the half-inhibitory concentration (IC50) worked out at 0.179 µM. With `COC(=O)c1ccc(S(=O)(=O)N[C@]2(c3ccc(OC(F)(F)F)c(F)c3)CCOc3cccnc32)cc1` [Example 286, (S)-methyl 4-(N-(4-(3-fluoro-4-(trifluoromethoxy)phenyl)-3,4-dihydro-2H-pyrano[3,2-b]pyridin-4-yl)sulfamoyl)benzoate], the IC50 was 0.754 µM.
